Measurements: patent US12594276B2, “Inhibitors of human immunodeficiency virus replication” (ViiV Healthcare UK (No.5) Limited, priority 2024, dated 2026)

Assays:
[1] = system: recombinant NL4-3 virus (nef section replaced with Renilla luciferase gene) in MT-2 cells; test: HIV cell culture assay (antiviral activity, luciferase readout); assay type: cell-based; details: Renilla, NL43, MT-2 cells infected for 4-5 days with recombinant NL4-3 Renilla luciferase virus
Outline: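 Reporter virus is produced in 293T cells and its titer set in MT-2 cells by luciferase activity. MT-2 cells are then infected in the presence of serially diluted compound for 4-5 days. Luciferase is quantified and EC50 fitted to the median effect equation.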

[2] = Compound cytotoxicity, XTT-based colorimetric assay; assay type: cell-based; details: human; uninfected MT2 cells, day 4, XTT; read-out: CC50
Outline: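 Uninfected MT2 cells were treated with compound under the same protocol as the antiviral assay. Viability was read on day 4 with an XTT colorimetric assay, from which CC50 values were derived.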

For `Cc1cc(C2CCC(F)(F)CC2)nc2nc([C@H](Cc3cc(F)cc(F)c3)NC(=O)Cn3nc(C(F)F)c4c3C(F)(F)[C@@H]3C[C@H]43)n(-c3ccc(Cl)c4c(NS(C)(=O)=O)nn(CCN5CC(F)(F)C(F)(F)C5)c34)c(=O)c12` (atropisomer, axis not shown; (P)) [Example 247, N-[(1S)-1-[(3P)-3-{4-chloro-3-methanesulfonamido-1-[2-(3,3,4,4-tetrafluoropyrrolidin-1-yl)ethyl]-1H-indazol-7-yl}-7-(4,4-difluorocyclohexyl)-5-methyl-4-oxo-3H,4H-pyrido[2,3-d]pyrimidin-2-yl]-2-(3,5-difluorophenyl)ethyl]-2-[(2S,4R)-9-(difluoromethyl)-5,5-difluoro-7,8-diazatricyclo[4.3.0.0^2,^4]nona-1(6),8-dien-7-yl]acetamide], the EC50 [1] was 0.047 nM and the CC50 at 4 days [2] was over 50 nM.
Molecule `Cc1cc(C2CCC(F)(F)CC2)nc2nc([C@H](Cc3cc(F)cc(F)c3)NC(=O)Cn3nc(C4CC4)c4c3C[C@@H]3C[C@H]43)n(-c3ccc(Cl)c4c(NS(C)(=O)=O)nn(CCN5CC(F)(F)C(F)(F)C5)c34)c(=O)c12` (atropisomer, axis not shown; (P)) [Example 248, N-[(1S)-1-[(3P)-3-{4-chloro-3-methanesulfonamido-1-[2-(3,3,4,4-tetrafluoropyrrolidin-1-yl)ethyl]-1H-indazol-7-yl}-7-(4,4-difluorocyclohexyl)-5-methyl-4-oxo-3H,4H-pyrido[2,3-d]pyrimidin-2-yl]-2-(3,5-difluorophenyl)ethyl]-2-[(2S,4S)-9-cyclopropyl-7,8-diazatricyclo[4.3.0.0^2,^4]nona-1(6),8-dien-7-yl]acetamide] has an EC50 [1] of 0.018 nM and a CC50 at 4 days [2] of over 50 nM.
In the case of `CO[C@H]1CCN(CCn2nc(NS(C)(=O)=O)c3c(Cl)ccc(-n4c([C@H](Cc5cc(F)cc(F)c5)NC(=O)Cn5nc(C(F)F)c6c5C(F)(F)[C@@H]5C[C@H]65)nc5nc(C6CCC(F)(F)CC6)cc(C(F)F)c5c4=O)c32)C1` (atropisomer, axis not shown; (P)) [Example 257, N-[(1S)-1-[(3P)-3-(4-chloro-3-methanesulfonamido-1-{2-[(3S)-3-methoxypyrrolidin-1-yl]ethyl}-1H-indazol-7-yl)-7-(4,4-difluorocyclohexyl)-5-(difluoromethyl)-4-oxo-3H,4H-pyrido[2,3-d]pyrimidin-2-yl]-2-(3,5-difluorophenyl)ethyl]-2-[(2S,4R)-9-(difluoromethyl)-5,5-difluoro-7,8-diazatricyclo[4.3.0.0^2,^4]nona-1(6),8-dien-7-yl]acetamide], the EC50 [1] is reported as 0.027 nM and the CC50 at 4 days [2] is reported as over 50 nM.
Molecule `CS(=O)(=O)Nc1nn(CCN2C[C@@H](F)[C@@H](F)C2)c2c(-n3c([C@H](Cc4cc(F)cc(F)c4)NC(=O)Cn4nc(C(F)F)c5c4C(F)(F)[C@@H]4C[C@H]54)nc4nc(C5CCC(F)(F)CC5)cc(C(F)F)c4c3=O)ccc(Cl)c12` (atropisomer, axis not shown; (P)) [Example 259, N-[(1S)-1-[(3P)-3-(4-chloro-1-{2-[(3R,4S)-3,4-difluoropyrrolidin-1-yl]ethyl}-3-methanesulfonamido-1H-indazol-7-yl)-7-(4,4-difluorocyclohexyl)-5-(difluoromethyl)-4-oxo-3H,4H-pyrido[2,3-d]pyrimidin-2-yl]-2-(3,5-difluorophenyl)ethyl]-2-[(2S,4R)-9-(difluoromethyl)-5,5-difluoro-7,8-diazatricyclo[4.3.0.0^2,^4]nona-1(6),8-dien-7-yl]acetamide] has an EC50 [1] of 0.025 nM and a CC50 at 4 days [2] of over 50 nM.
